In patent publication US6964870B2, “Enhanced selection of genetically modified pine embryogenic tissue” (MeadWestvaco Corporation, priority 2000, dated 2005):

Tested on: Loblolly pine (Pinus taeda) embryogenic cell lines
Test: Biolistic transformation and selection of transformed sublines with or without ABA in the selection medium (Example 1)
Format: cell-based
From the text: To prepare for gene transfer, a sterile fabric support (in this example PECAP® fabric support, commercially available from SEFAR Inc.) was placed in a sterile Buchner funnel and one to five milliliters of embryogenic suspension was pipetted onto the fabric support such that the embryogenic tissue was evenly distributed over the surface. The liquid medium was suctioned from the tissues using a mild vacuum. The fabric support with embryogenic tissue was removed from the Buchner funnel and placed on a GELRITE® gelling agent solidified DCR3 preparation medium (Table 2) in 100×25 mm plastic petri dishes. Dishes were incubated in a dark growth chamber at 23°±2° C. for about 24-48 hours.
DNA was transferred into the tissues by the biolistic method described in U.S. patent application Ser. No. 09/318,136 filed on 25 May 1999 and New Zealand Patent No. 336149, each incorporated herein by reference, using the PDS-1000/He BIOLISTICS® Particle Delivery System (available from Bio-Rad Laboratories). The DNAs of interest, here containing the visual marker gene uidA and the selection gene nptII, were precipitated onto the surface of gold microparticles, which were subsequently accelerated toward embryogenic tissue to penetrate the cell walls. Once inside the cells, DNA is released from the carrier particles and integrated randomly into the chromosomes.
The petri dishes with the fabric support and embryonic tissues were then placed into the interior of the PDS 1000/He BIOLISTICS® device and vacuum applied to a level of 28 inches Hg. The gold particles carrying the DNA were accelerated toward the embryogenic tissue following a helium build-up and bursting regulated by a 1550 psi rupture disk. In the PDS-1000/He BIOLISTICS® device the gap between the rupture disk and the macrocarrier (gap distance) was five mm and the macrocarrier travel distance was 13 mm. Following DNA transfer the petri dishes containing the fabric support and tissues were incubated in a dark growth chamber at 23°±2° C. for about 24 hours. The tissues and fabric support were transferred to semi-solid maintenance medium, DCR1 (Table 2) to recover from carrier particle bombardment and incubated in a dark growth chamber at 23°±2° C. for a period of about seven days. The tissues and fabric support were transferred to a selection medium, semi-solid maintenance medium DCR1 containing a level of selection agent inhibitory to the growth of non-transformed cells. In this and subsequent examples the selection agent used was GENETICIN® antibiotic at 15-30 mg/l. The plates were incubated in a dark growth chamber at 23°±2° C. for about six to twelve weeks with the fabric supports containing the tissues being transferred to the same fresh culture medium every 2-3 weeks. […]

## CC1=CC(=O)CC(C)(C)[C@@]1(O)/C=C/C(C)=C\C(=O)O [ABA, abscisic acid]
10 mg/L ABA in medium only during the first three weeks of selection
  stable transformants after nine weeks of selection: Stable transformants were detected
ABA in selection medium throughout the entire nine-week selection period
  stable transformants after nine weeks of selection: more transformants were detected
ABA in the selection medium vs none
  transformants from a cell line of an elite family, progeny of P. taeda elite line 7-56: observed only on treatments that had contained ABA in the selection medium
ABA present during the entire period of transfer, all lines tested
  number of transformants obtained: equal to or greater than the number obtained for any other treatment
